Assay results: ChEMBL document CHEMBL4033631, “Discovery of benzothiazole derivatives as novel non-sulfamide NEDD8 activating enzyme inhibitors by target-based virtual screening” (Eur J Med Chem, 2017)
pIC50: −log10 of the molar value.

Legend:
[1] = test system: HCT-116; assay: Antitumor activity against human HCT116 cells after 72 hrs by MTT assay; type: functional, cell-based; conditions: HCT-116, 72 h
[2] = test system: U2OS; assay: Antitumor activity against human U2OS cells after 72 hrs by MTT assay; type: functional, cell-based
[3] = organism: Homo sapiens; assay: Inhibition of NAE in human HCT116 cells assessed as decrease in NEDD8 level after 4 hrs by Western blot analysis; type: cell-based
[4] = organism: Homo sapiens; assay: Inhibition of NAE in human HCT116 cells assessed as decrease in NEDD8-UBC12 complex formation after 4 hrs by Western blot analysis; type: cell-based

| Compound | pIC50 [1] | pIC50 [2] | inhibition [3] | inhibition [4] |
| --- | --- | --- | --- | --- |
| O=C(CSc1cccc(O)c1)Nc1ccc2nc(NC(=O)c3cc(Cl)cc(Cl)c3)sc2c1 | 5.26 | 5.82 | – | – |
| O=C(CSC1CCCCC1)Nc1ccc2nc(NC(=O)c3ccc(C(F)(F)F)cc3)sc2c1 | 4.68 | 4.91 | – | – |
| NS(=O)(=O)OC[C@@H]1C[C@@H](n2ccc3c(N[C@H]4CCc5ccccc54)ncnc32)C[C@@H]1O [PEVONEDISTAT] | 6.72 | 6.80 | – | – |
| Cc1ccc(C(=O)Nc2nc3ccc(NC(=O)CSc4ccc(Cl)cc4)cc3s2)cc1 | 5.67 | 5.50 | – | – |
| COc1ccc(C(=O)Nc2nnc(SCC(=O)Nc3ccc(Br)cc3)s2)cc1OC | 4.18 | < 4.00 | – | – |
| Cc1ccc(C(=O)Nc2nc3ccc(NC(=O)CSc4cccc(O)c4)cc3s2)cc1 | 5.11 | 4.91 | – | – |
| CCn1c(CNc2ccc(OC)cc2)nnc1SCC(=O)Nc1ccc(Cl)cc1 | 4.40 | 4.20 | – | – |
| Cn1c(CNC(=O)c2cccs2)nnc1SCC(=O)Nc1cccc(Cl)c1 | < 4.00 | < 4.00 | – | – |
| CCCC(=O)Nc1nc2ccc(NC(=O)CSc3cccc(O)c3)cc2s1 | 4.98 | 4.99 | – | – |
| Cn1c(CNC(=O)c2cccs2)nnc1SCC(=O)Nc1ccc(Cl)cc1 | 4.04 | < 4.00 | – | – |
| COc1cc(CNC(C)(C)CO)ccc1OCC(=O)Nc1ccc(C)cc1 | < 4.00 | < 4.00 | – | – |
| O=C(Cc1nnc(NC(=O)c2ccc(Cl)cc2)s1)N/N=C/c1ccc(O)cc1O | 4.42 | 4.39 | – | – |
| O=C(CSc1cccc(O)c1)Nc1ccc2nc(NC(=O)c3ccccc3)sc2c1 | 4.39 | < 4.00 | – | – |
| O=C(CSc1cccc(O)c1)Nc1ccc2nc(NC(=O)c3ccc(C(F)(F)F)cc3)sc2c1 | 6.29 | 6.20 | Dose-dependent effect | Dose-dependent effect |
| O=C(CSc1nnc(NC(=O)COc2ccccc2)s1)Nc1ccc(Br)cc1 | < 4.00 | < 4.00 | – | – |
| O=C(CSc1ncccn1)Nc1ccc2nc(NC(=O)c3ccc(C(F)(F)F)cc3)sc2c1 | 5.65 | 4.55 | – | – |
| O=C(CSc1ncc[nH]1)Nc1ccc2nc(NC(=O)c3ccc(C(F)(F)F)cc3)sc2c1 | 5.57 | 4.73 | – | – |
| CCCC(=O)Nc1nc2ccc(NC(=O)CSc3ccc(Cl)cc3)cc2s1 | 5.67 | 5.50 | – | – |
| O=C(CSc1ncccc1C(=O)O)Nc1ccc2nc(NC(=O)c3ccc(C(F)(F)F)cc3)sc2c1 | 5.64 | 4.87 | – | – |
| O=C(Cc1nnc(NC(=O)c2ccc(Cl)cc2)s1)N/N=C/c1ccc(O)cc1 | 4.17 | < 4.00 | – | – |
| CC(O)c1cccc(NC(=O)c2cc(Br)ccc2Br)c1 (configuration not stated) | < 4.00 | < 4.00 | – | – |
| O=C(CSc1cccc(O)c1)Nc1ccc2nc(NC(=O)c3cccs3)sc2c1 | 5.15 | 4.20 | – | – |
| O=C(Cn1cc(F)c(=O)n(CC(=O)Nc2ccc(Br)cn2)c1=O)Nc1ccc(Br)cn1 | 4.95 | 5.29 | – | – |
| O=C(CSc1ccc(Cl)cc1)Nc1ccc2nc(NC(=O)c3ccc(C(F)(F)F)cc3)sc2c1 | 6.03 | 5.54 | – | – |
| Nc1ccc(SCC(=O)Nc2ccc3nc(NC(=O)c4ccc(C(F)(F)F)cc4)sc3c2)cc1 | 7.00 | 5.91 | Dose-dependent effect | Dose-dependent effect |

The next lines start with results.

| pIC50 [1] | pIC50 [2] | Compound | inhibition [3] | inhibition [4] |
| --- | --- | --- | --- | --- |
| 5.37 | 5.75 | O=C(CSc1cccc(O)c1)Nc1ccc2nc(NC(=O)c3ccc4ccccc4c3)sc2c1 | – | – |
| 5.42 | 5.15 | O=C(CSc1nc2ccccc2[nH]1)Nc1ccc2nc(NC(=O)c3ccc(C(F)(F)F)cc3)sc2c1 | – | – |
| < 4.00 | 4.03 | COc1ccc(/C=N/NC(=O)c2ccc(NC(=O)c3ccccc3Br)cc2)cc1 | – | – |
| 6.52 | 5.40 | O=C(CSc1ccc2ccccc2c1)Nc1ccc2nc(NC(=O)c3ccc(C(F)(F)F)cc3)sc2c1 | Dose-dependent effect | Dose-dependent effect |
| 5.87 | 5.60 | O=C(CSc1ccc(Cl)cc1)Nc1ccc2nc(NC(=O)c3ccc(F)cc3)sc2c1 | – | – |
| 4.32 | 4.05 | Cc1ccc(S(=O)(=O)Nc2nc(C)c(NC(=O)Nc3ccc(Cl)cc3)s2)cc1 | – | – |
| 5.29 | 5.55 | Cc1cc(C)cc(C(=O)Nc2nc3ccc(NC(=O)CSc4cccc(O)c4)cc3s2)c1 | – | – |
| 5.21 | 5.29 | O=C(CSc1cccc(O)c1)Nc1ccc2nc(NC(=O)c3ccc(F)cc3)sc2c1 | – | – |
| 4.81 | 4.10 | Cc1nc(Nc2nc3ccccc3o2)nc(C)c1C(=O)Nc1ccc(F)cc1 | – | – |
| 4.19 | < 4.00 | Cc1cc(C)cc(C(=O)Nc2nc3ccc(NC(=O)CSc4ccc(Cl)cc4)cc3s2)c1 | – | – |
| 6.49 | 6.00 | Cc1ccc(SCC(=O)Nc2ccc3nc(NC(=O)c4ccc(C(F)(F)F)cc4)sc3c2)c(C)c1 | – | – |
| 4.70 | 4.66 | Oc1ccc(Cl)cc1/C=N/c1ccc(-c2nc3ccccc3o2)c(O)c1 | – | – |
| 5.39 | 4.84 | O=C(CSc1ccc(Cl)cc1)Nc1ccc2nc(NC(=O)c3ccc4ccccc4c3)sc2c1 | – | – |
